Laboratory results taken from ChEMBL document CHEMBL1201862, “PubChem BioAssay data set” (2004).
Calls of active or inactive are those of the source.

Key:
[1] = Luminescence Cell-Based Dose Confirmation HTS to Identify Inhibitors of Platelet Dense Granule Release. [Related pubchem assays: 1663 (Primary HTS), 1678 (Summary of Project)]; assay type: functional
[2] = molecular target: Luciferin 4-monooxygenase (Photinus pyralis, UniProt P08659); assay: inhibition of purified Photinus pyralis luciferase – biochemical, luminescence, dose response (AID 1891)
Sequence of Luciferin 4-monooxygenase (P08659 whole entry): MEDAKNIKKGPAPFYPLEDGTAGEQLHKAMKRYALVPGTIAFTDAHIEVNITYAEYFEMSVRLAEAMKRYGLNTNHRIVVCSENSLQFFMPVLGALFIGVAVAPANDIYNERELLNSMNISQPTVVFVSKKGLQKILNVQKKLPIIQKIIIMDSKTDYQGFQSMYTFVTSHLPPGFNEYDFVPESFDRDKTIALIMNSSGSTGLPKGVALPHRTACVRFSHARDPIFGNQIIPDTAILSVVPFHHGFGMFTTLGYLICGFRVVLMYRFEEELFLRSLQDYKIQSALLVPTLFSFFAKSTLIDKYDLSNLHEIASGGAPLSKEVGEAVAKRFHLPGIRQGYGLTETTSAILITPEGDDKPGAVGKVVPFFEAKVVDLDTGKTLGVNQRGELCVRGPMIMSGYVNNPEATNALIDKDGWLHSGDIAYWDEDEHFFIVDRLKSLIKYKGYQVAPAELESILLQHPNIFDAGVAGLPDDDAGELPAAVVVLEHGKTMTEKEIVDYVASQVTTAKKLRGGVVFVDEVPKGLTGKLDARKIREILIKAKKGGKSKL

[3] = molecular target: Cytochrome P450 2C9 (Homo sapiens, UniProt P11712)
Sequence of Cytochrome P450 2C9 (P11712 whole entry): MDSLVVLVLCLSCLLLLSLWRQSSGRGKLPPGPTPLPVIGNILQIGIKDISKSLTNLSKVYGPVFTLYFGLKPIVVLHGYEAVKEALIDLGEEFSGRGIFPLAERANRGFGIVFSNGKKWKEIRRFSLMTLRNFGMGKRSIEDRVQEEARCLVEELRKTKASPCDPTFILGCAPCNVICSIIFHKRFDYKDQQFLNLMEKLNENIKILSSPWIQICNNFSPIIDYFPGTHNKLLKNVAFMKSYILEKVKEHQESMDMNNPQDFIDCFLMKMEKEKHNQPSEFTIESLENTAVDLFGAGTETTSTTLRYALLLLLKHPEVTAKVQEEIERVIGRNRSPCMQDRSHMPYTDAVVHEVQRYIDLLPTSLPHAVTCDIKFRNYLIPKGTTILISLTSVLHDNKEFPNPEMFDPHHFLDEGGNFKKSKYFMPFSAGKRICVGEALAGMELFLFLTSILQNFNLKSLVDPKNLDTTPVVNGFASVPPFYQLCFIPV

[4] = system: Streptococcus; assay: GAS UMAA2166 growth inhibition – luminescence, BacTiterGlo, counter-screen for streptokinase expression inhibitor project, dose response (AID 1915); assay type: functional, organism-based;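 further: potency for reduction of bacterial viability or growth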
[5] = Luminescence Cell-Based Dose Retest to Confirm Inhibitors of Cancer Stem Cells. [Related pubchem assays (depositor defined):AID2717, AID2721]; assay type: functional; conditions: Homo sapiens
[6] = system: Streptococcus sp. 'group A'; assay: Streptococcus pyogenes SK(-)GAS viability under kanamycin – luminescence, BacTiterGlo, confirmation, counter-screen for streptokinase expression inhibitor project, dose response (AID 1900); assay type: functional, organism-based
[7] = molecular target: T1, Streptokinase A (Streptococcus pyogenes serotype M1, UniProt P10520); assay: viability-normalized secreted streptokinase activity reduction – plasminogen activation absorbance, OD405, dose response (AID 1914); assay type: functional, Streptococcus pyogenes M1 GAS;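 further: secreted streptokinase activity via plasminogen activation per viability signal from cell pellet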
T1 sequence (P10520 whole entry): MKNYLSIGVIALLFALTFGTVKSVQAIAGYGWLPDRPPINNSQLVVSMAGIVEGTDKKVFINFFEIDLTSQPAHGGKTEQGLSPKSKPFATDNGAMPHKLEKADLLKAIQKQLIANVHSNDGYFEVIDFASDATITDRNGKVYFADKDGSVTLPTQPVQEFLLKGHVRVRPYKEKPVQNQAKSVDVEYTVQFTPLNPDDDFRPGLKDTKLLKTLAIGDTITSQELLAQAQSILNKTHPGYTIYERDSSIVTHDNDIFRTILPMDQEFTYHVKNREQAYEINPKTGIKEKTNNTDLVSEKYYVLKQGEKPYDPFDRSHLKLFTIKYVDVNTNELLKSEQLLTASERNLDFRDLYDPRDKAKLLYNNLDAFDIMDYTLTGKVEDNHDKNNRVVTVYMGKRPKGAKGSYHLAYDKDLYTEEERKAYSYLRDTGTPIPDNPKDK

[8] = molecular target: Cytochrome P450 2C19 (Homo sapiens, UniProt P33261); assay: Cytochrome panel assay with activity outcomes. Panel member name: p450-cyp2c19 Compounds with AC50 equal or less than 10 uM are considered active; assay type: functional
Sequence of Cytochrome P450 2C19 (P33261 whole entry): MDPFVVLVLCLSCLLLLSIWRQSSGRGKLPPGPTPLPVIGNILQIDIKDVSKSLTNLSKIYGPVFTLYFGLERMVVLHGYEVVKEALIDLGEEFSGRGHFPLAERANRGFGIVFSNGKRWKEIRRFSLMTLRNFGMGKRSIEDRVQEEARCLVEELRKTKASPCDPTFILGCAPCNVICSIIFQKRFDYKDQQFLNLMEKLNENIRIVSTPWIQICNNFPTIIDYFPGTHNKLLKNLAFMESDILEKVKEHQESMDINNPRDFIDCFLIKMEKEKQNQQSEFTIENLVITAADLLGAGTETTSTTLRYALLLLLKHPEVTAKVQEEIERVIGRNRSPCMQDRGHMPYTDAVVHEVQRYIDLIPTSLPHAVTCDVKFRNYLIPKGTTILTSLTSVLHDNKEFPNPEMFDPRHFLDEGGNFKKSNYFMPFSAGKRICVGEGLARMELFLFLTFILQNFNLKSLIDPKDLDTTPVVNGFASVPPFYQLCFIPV

[9] = alpha-synuclein stem-loop luciferase translation blockers – H4 neuroglioma cells, luminescence, confirmation (AID 1988); assay type: functional, cell-based
[10] = luciferase reporter signal suppression in cells – H4 neuroglioma cells, luminescence, dose response (AID 1990); assay type: functional, cell-based
[11] = Luminescence Cell-Based Dose Response HTS to Identify Inhibitors of 5'UTR Stem-Loop Driven Prion Protein mRNA Translation in H4 Neuroglioblastoma Cells. [Related pubchem assays: 1827 (Project Summary), 1813 (Primary HTS)]; assay type: functional
[12] = viability of uninfected HEp-2 cells – cell-based, HTS, cytotoxicity control for RSV inhibitor project, dose response (AID 2410); assay type: functional; conditions: human respiratory syncytial virus
[13] = molecular target: Cytochrome P450 3A4 (Homo sapiens, UniProt P08684);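 further: CYP3A4 tested as one member of a cytochrome P450 panel screen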
Sequence of Cytochrome P450 3A4 (P08684 whole entry): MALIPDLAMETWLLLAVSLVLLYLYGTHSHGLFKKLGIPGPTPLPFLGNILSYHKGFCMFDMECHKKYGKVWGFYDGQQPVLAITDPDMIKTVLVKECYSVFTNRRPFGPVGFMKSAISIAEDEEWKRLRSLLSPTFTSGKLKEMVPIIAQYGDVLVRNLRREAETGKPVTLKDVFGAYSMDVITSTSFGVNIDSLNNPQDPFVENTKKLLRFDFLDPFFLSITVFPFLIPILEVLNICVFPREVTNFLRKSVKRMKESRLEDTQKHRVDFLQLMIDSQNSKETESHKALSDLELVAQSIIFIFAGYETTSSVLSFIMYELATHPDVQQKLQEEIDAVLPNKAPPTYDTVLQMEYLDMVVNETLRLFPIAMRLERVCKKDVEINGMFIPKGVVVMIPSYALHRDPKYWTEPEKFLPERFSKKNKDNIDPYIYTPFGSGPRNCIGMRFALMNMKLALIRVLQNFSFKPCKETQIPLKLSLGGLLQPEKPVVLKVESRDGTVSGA

[14] = NIH3T3 cell viability loss – ATP luminescence, mouse fibroblasts, counter-screen, dose response (AID 2010); assay type: functional, cell-based;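 further: cells exposed to compound for about 90 hours before reading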
[15] = system: INS1; assay: INS-1E survival protection against cytokine death – cell-based, luminescence, retest, dose response (AID 449756); assay type: functional; conditions: Rattus norvegicus;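 further: cell death triggered by IL-1 beta plus TNF-alpha plus IFN-gamma mixture; protective hits raise ATP signal compared with cytokine alone wells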
[16] = Trypanosoma cruzi growth suppression in host cells – NIH3T3 host cells, beta-gal luminescence, confirmation (AID 2044); assay type: functional, cell-based;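 further: intracellular parasites grown in NIH/3T3 mouse fibroblasts as host cells; luminescent beta-galactosidase reporter signal from transgenic T. cruzi replicating inside host cells; inhibitors lower the luminescence signal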

O=C(COc1cccc(OC(F)F)c1)Nc1ccc(SC(F)F)cc1
EC50 [1]: > 112 µM (not active)
EC50 [2]: > 112 µM (not active)

COCCn1c(=O)c(C)nc2cnc(Nc3cccc(OC)c3)nc21
AC50 [3]: 39.8 µM (inconclusive)

Cc1noc(C)c1CSc1nc2ccccc2nc1NS(=O)(=O)c1ccc(Cl)cc1
EC50 [4]: 13.7 µM (active)
AC50 [5]: 3.64 µM (active)
EC50 [6]: 6.49 µM (active)
EC50 [7]: 5.51 µM (active)

COc1ccc(/C=N\NC(=O)c2ccc(F)cc2)cc1COc1ccccc1C(N)=O
EC50 [1]: > 112 µM (not active)
EC50 [2]: > 112 µM (not active)

Brc1cccc(OCCN2CCc3ccccc3C2)c1
AC50 [5]: 24.9 µM (active)

CCCc1cc(=O)oc2c(CN3CCOCC3)c(O)ccc12
AC50 ([8]; read-out: AC50): 25.1 µM (inconclusive)

COc1ccc(C(=O)C2CCCN(Cc3cc(C)c(O)c(C)c3)C2)c(OC)c1 (stereo not drawn)
AC50 [5]: 0.502 µM (active)

Cc1nc2ccccc2c(=O)n1NC(=O)C1CCC(C(C)(C)C)CC1 (stereo not drawn)
EC50 [9]: > 120 µM (not active)
EC50 [10]: > 120 µM (not active)
EC50 [11]: > 120 µM (not active)

CCc1ccc(-c2cc(C(=O)N/N=C/c3c[nH]c4ccccc34)[nH]n2)cc1
EC50 [4]: 6.73 µM (active)
AC50 [5]: 2.97 µM (active)
EC50 [6]: 7.37 µM (active)
EC50 [7]: > 150 µM (not active)

COc1ccc(C(=O)NCCOc2cccc(OC)c2)cc1
EC50 [1]: > 112 µM (not active)
EC50 [2]: > 112 µM (not active)

CC(/C=N/NC(=O)c1nnn(-c2nonc2N)c1C(C)C)=C\c1ccccc1
CC50 [12]: 39.5 µM (active)

O=P(O)(O)CCP(=O)(c1ccccc1)c1ccccc1
AC50 [8]: inconclusive

COc1ccc(CCN2CC34C=CC(O3)C(C(=O)NCc3ccccc3)C4C2=O)cc1OC (stereo not drawn)
AC50 ([8]; read-out: AC50): 14.1 µM (inconclusive)

COc1ccc(C(=O)OCCOc2cccc(Cl)c2)cc1S(=O)(=O)N1CCOCC1
EC50 [1]: > 112 µM (not active)
EC50 [2]: > 112 µM (not active)

CCOC(=O)C(=O)NNc1ccc(Cl)cc1
AC50 [5]: 0.79 µM (active)

COc1cccc(Nc2ncc3ncc(=O)n(C)c3n2)c1
AC50 [13]: 12.6 µM (inconclusive)
AC50 [8]: inconclusive

CCOC(=O)Cn1c(=O)oc2cc(S(=O)(=O)NCCc3ccc(OCC)c(OCC)c3)ccc21
AC50 [3]: 0.00562 µM (inconclusive)

COC(=O)C(NS(=O)(=O)c1ccc(NC(C)=O)cc1)C(C)C (stereo not drawn)
AC50 [3]: 1.58 µM (inconclusive)

CCOc1ccc(S(=O)(=O)N2CCC(C(=O)NCc3cccnc3)CC2)cc1Cl
EC50 [9]: > 120 µM (not active)
EC50 [10]: 17.7 µM (active)
EC50 [11]: > 120 µM (not active)

C/C(=N\NC(=O)COc1ccccc1-c1ccccc1)c1ccc(O)cc1O
EC50 [4]: 5.4 µM (active)
EC50 [14]: 4.94 µM (active)
EC50 [6]: 3.01 µM (active)
EC50 [9]: 9.9 µM (active)
EC50 [10]: 11.1 µM (active)
EC50 [11]: 9.87 µM (active)
AC50 [15]: 2.48 µM (active)
EC50 [16]: 1.24 µM (active)

O=[N+]([O-])c1ccc(S(=O)(=O)Nc2cccc(-c3ccc(N4CCCC4)nn3)c2)cc1
CC50 [12]: 24.5 µM (active)

CCOC(=O)c1ccc(NC2c3ccccc3C(=O)N2c2cccnc2)cc1 (stereo not drawn)
EC50 [9]: 9.83 µM (active)
EC50 [10]: 20 µM (active)
EC50 [11]: > 120 µM (not active)

C[N+](C)(C)c1nc(N)nc2c1ncn2[C@H]1O[C@@H](CO)[C@@H](O)[C@H]1O
AC50 [8]: inconclusive

O=c1cc(O)cc(/C=C\c2ccc(O)c(O)c2)o1
AC50 [3]: 25.1 µM (inconclusive)
AC50 [13]: 3.16 µM (inconclusive)

COc1cc2c(cc1OC)C(C(=O)Nc1ccc3c(c1)OCCO3)C(c1cccnc1)N(C)C2=O (stereo not drawn)
AC50 [3]: 11.2 µM (inconclusive)

FC(F)(F)c1ccccc1-c1nc(NC2CCNCC2)c2ccccc2n1
AC50 [8]: inconclusive

COC(=O)c1[nH]c2cc(OC)ccc2c1NC(=O)CN1CCOCC1
EC50 [1]: > 112 µM (not active)
EC50 [2]: > 112 µM (not active)
